Assay results from patent publication US6593362B2, “Non-peptidic cyclophilin binding compounds and their use” (Guilford Pharmaceuticals Inc., priority 2001, dated 2003).

Tests used:
CyP A = CyP A (Homo sapiens, UniProt P62937); assay: biochemical; details: for inhibition at 10 µM: read-out: % Inhibition at 10 μM
Procedure: A number of substrates for rotamase are known in the art or can be derived from those known. Typically, the substrate contacts a sample containing a protein with rotamase activity and the conversion of the substrate is detected after a period of time. The method for detecting conversion of the substrate will vary with the particular substrate chosen.
The following were added to a plastic cuvette: […] of ice cold assay buffer (25 mM HEPES, pH 7.8, 100 mM NaCl), 10 μL of CyP A (2.5 μM in 10 mM Tris-Cl pH 7.5, 100 mM NaCl, 1 mM dithiothreitol), 25 μL of chymotrypsin (50 mg/ml in 1 mM HCl), and 10 μL of test compound, at various concentrations, in dimethyl sulfoxide. The reaction was initiated by the addition of 5 μL of substrate (succinyl-Ala-Phe-Pro-Phe-para-nitroanilide, 5 mg/mL in 470 mM LiCl in trifluoroethanol). The absorbance at 390 nm versus time was monitored for 90 seconds using a spectrophotometer.
While CyP A is used in these examples, other CyP proteins can be substituted.

ventral horn motoneurons = assay: Neuroprotection assay, THA-treated organotypic spinal cord slice cultures; type: cell-based; details: THA 200 μM + compound 10 μM, rat spinal cord slice cultures, FIGS. 1-6
Procedure: For each of FIGS. 1-6, the bar graphs represent the number of viable neurons after a specified treatment regimen employed in a neuroprotective activity assay. The cells of the experiments were treated with a control solution, a neurotoxic solution, and neurotoxic+experimental compound solution. The statistical significance, p, is calculated using the standard 2 tailed Student's t test.
Protection of cells from calcium-related physiological stress can be assessed in a neuroprotection assay. Organotypic slice cultures of rat spinal cord tissue display a protracted loss of ventral horn motoneurons when exposed to the glutamate uptake inhibitor THA. […] Each experiment consisted of two 6-well plates with 5 slices from 4 different animals per well. Media changes were performed every 3 to 4 days. […] The control was an untreated sample with 0.1% DMSO as vehicle. The THA control was a THA treated sample with 0. 1% DSMO as vehicle. Two wells were used per condition. One media change with new THA and compounds was performed. The experiment was stopped 6 to 8 days following drug treatment (13-15 total days in vitro, DIV) as dictated by visual assessment of lesion, by fixation with 4% paraformaldehyde/0.1 M phosphate buffer for 30 minutes. Slices were permeabilized with 100% cold methanol for 10 minutes. Slices were transferred to staining wells. The slices were blocked with 10% horse serum/TBS. Primary antibody incubation was overnight at 4° C. with SMI-32 antibody 1:5000 in 2% horse serum/TBS. SMI-32 is specific towards the unphosphorylated H neurofilament subunit, and was here utilized as a marker for ventral horn motoneurons. A Vectastain ABC Elite Kit with rat absorbed anti-mouse secondary antibody was used with DAB to stain the slices. The slices were mounted under DPX mounting solution for microscopy.
Quantification of surviving neurons was performed on a Zeiss Axiovert microscope. Neuronal survival was determined by observing an intact neuronal cell body with processes located ventrally of the central canal in each hemisphere. This correlated to laminae VII, VIII and IX. Each hemisphere was counted individually. The statistics were performed with StatView software on a minimum of three different experiments per condition and significance was determined as compared to THA control. The percent of protection was determined from the average number of living neurons by the following equation: (drug treatment condition —THA control)/(Untreated control-THA control).

neuronal cells = assay: Neurotrophic or neuroprotectant activity (assay not specified); type: cell-based
Excerpt: In general, activity in the nervous system for a particular compound can be identified by assaying for the ability to promote neurite outgrowth, protect neurons from damage by chemical treatments, promote the growth of neurons or neuronal cells, recover lost or damaged motor, functional or cognitive ability associated with nervous tissue or organs of the nervous system, or regenerate neurons. These activities can be useful in treating, diagnosing, or prognosing a number of human disease conditions, including, but not limited to, Parkinson's disease, Alzheimer's disease, amyotrophic lateral sclerosis (ALS), traumatic injury, spinal cord injury, multiple sclerosis, diabetic neuropathy, neuropathy associated with medical treatments such as chemotherapy, ischemia or ischemia-induced injury, stroke, oxygen deprivation, retinopathies, peripheral neuropathies, and neuropathies associated with viral infection.
Preferred methods for detecting neuronal activity include a neuroprotective assay, in which a compound is tested for the ability to protect against treatment causing glutamate neurotoxicity. Sensory neuronal cultures (DRG) can also be assayed for neurite outgrowth, an assay for neurotrophic activity. […] Immunohistochemistry can aid in the visualization and quantitation of neurites as compared to control.

Chain of CyP A (P62937 whole entry): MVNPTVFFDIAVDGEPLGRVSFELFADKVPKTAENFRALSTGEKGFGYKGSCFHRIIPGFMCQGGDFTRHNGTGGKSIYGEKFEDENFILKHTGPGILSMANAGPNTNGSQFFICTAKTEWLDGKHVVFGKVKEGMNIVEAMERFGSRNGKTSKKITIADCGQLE

NC(=O)c1ccccc1NC(=O)Nc1cc(NC(=O)Nc2ccccc2C(N)=O)c(Br)cc1Br [Compound 1]
inhibition at 10 µM (CyP A): 100%

O=C(Nc1ccc(I)cc1)Nc1cc(NC(=O)Nc2ccc(I)cc2)c(Br)cc1Br [Compound 3]
IC50 (CyP A): 600 nM
neuroprotective activity (number of viable neurons) (ventral horn motoneurons): displays neuroprotective activity

Cc1ccc(NC(=O)N(Cc2ccccc2)Cc2ccccc2)cc1NC(=O)N(Cc1ccccc1)Cc1ccccc1 [Compound 4]
IC50 (CyP A): 800 nM
inhibition at 10 µM (CyP A): 100%
neuroprotective activity (number of viable neurons) (ventral horn motoneurons): displays neuroprotective activity

CSc1ccc(Cl)cc1C(=O)Nc1cccc(NC(=O)c2cc(Cl)ccc2SC)c1 [Compound 6]
inhibition at 10 µM (CyP A): 100%
neurotrophic or neuroprotectant activity (neuronal cells): possess neurotrophic or neuroprotectant activity

O=C(Nc1ccccc1)Nc1cc(NC(=O)Nc2ccccc2)cc(C(F)(F)F)c1 [Compound 7]
inhibition at 10 µM (CyP A): 100%
neurotrophic or neuroprotectant activity (neuronal cells): possess neurotrophic or neuroprotectant activity

O=C(Nc1cccc2ccccc12)NC1CCCC(NC(=O)Nc2cccc3ccccc23)C1 (centres unmarked) [Compound 10]
IC50 (CyP A): 4500 nM

O=C(Nc1cccc(NC(=O)Nc2ccon2)c1)Nc1ccon1 [Compound 11]
IC50 (CyP A): 4000 nM
inhibition at 10 µM (CyP A): 93%
neuroprotective activity (number of viable neurons) (ventral horn motoneurons): displays neuroprotective activity

COc1cccc(NC(=O)NC2CCCC(NC(=O)Nc3cccc(OC)c3)C2)c1 (centres unmarked) [Compound 12]
IC50 (CyP A): 9500 nM
inhibition at 10 µM (CyP A): 47.7%
neuroprotective activity (number of viable neurons) (ventral horn motoneurons): displays neuroprotective activity

O=S(=O)(Nc1cccc(OCCc2cccc3ccccc23)c1)c1cccc2ccccc12 [Compound 13]
IC50 (CyP A): 830 nM
inhibition at 10 µM (CyP A): 100%
melting point: 165 to 167 °C

O=C(Nc1cc(Cl)cc(Cl)c1)c1cccc(C(=O)Nc2cc(Cl)cc(Cl)c2)c1 [Compound 14]
inhibition at 10 µM (CyP A): 100%

O=C(NCc1cccc2ccccc12)c1cccc(NC(=O)c2cc(Cl)cc(Cl)c2)c1 [Compound 16, {3-[(3,5-dichlorophenyl)carbonylamino]phenyl}-N-(naphthylmethyl) formamide]
inhibition at 10 µM (CyP A): 100%
melting point: 205 to 208 °C

O=C(Nc1cccc(S(=O)(=O)NC(c2ccccc2)c2ccccc2)c1)C(c1ccccc1)c1ccccc1 [Compound 17]
IC50 (CyP A): 650 nM
inhibition at 10 µM (CyP A): 99%

O=C(Nc1cccc(S(=O)(=O)NC(c2ccccc2)c2ccccc2)c1)c1cc(Cl)cc(Cl)c1 [Compound 18]
IC50 (CyP A): 520 nM
inhibition at 10 µM (CyP A): 100%

CN(C)c1ccc(NC(=O)Nc2cc(NC(=O)Nc3ccc(N(C)C)cc3)c(Br)cc2Br)cc1 [Compound 19]
IC50 (CyP A): 2900 nM
inhibition at 10 µM (CyP A): 98%

O=C(NCc1cccc2ccccc12)Nc1cccc(NC(=O)NCc2cccc3ccccc23)c1 [Compound 21]
inhibition at 10 µM (CyP A): 100%

O=C(Nc1cccc(NC(=O)N(c2ccccc2)c2ccccc2)c1)N(c1ccccc1)c1ccccc1 [Compound 22]
inhibition at 10 µM (CyP A): 100%

O=C(Nc1cc(Cl)cc(Cl)c1)NC1CCCC(NC(=O)Nc2cc(Cl)cc(Cl)c2)C1 (centres unmarked) [Compound 23]
inhibition at 10 µM (CyP A): 100%

O=C(Nc1ccc(Br)cc1Br)NC1CCCC(NC(=O)Nc2ccc(Br)cc2Br)C1 (centres unmarked) [Compound 24]
inhibition at 10 µM (CyP A): 100%

O=C(NCC1CCCC(CNC(=O)Nc2cc(Cl)cc(Cl)c2)C1)Nc1cc(Cl)cc(Cl)c1 (centres unmarked) [Compound 25]
inhibition at 10 µM (CyP A): 100%

O=C(NCC1CCCC(CNC(=O)Nc2cc(Br)cc(Br)c2)C1)Nc1cc(Br)cc(Br)c1 (centres unmarked) [Compound 26]
inhibition at 10 µM (CyP A): 100%

Cc1ccc(NC(=O)Nc2cccc(NC(=O)Nc3ccc(C)cc3C)c2)c(C)c1 [Compound 27]
inhibition at 10 µM (CyP A): 100%

O=C(Nc1cc(Cl)cc(Cl)c1)Nc1cccc(NC(=O)Nc2cc(Cl)cc(Cl)c2)c1 [Compound 28]
inhibition at 10 µM (CyP A): 100%

O=C(Nc1cccc(NC(=O)Nc2ccc(Br)cc2Br)c1)Nc1ccc(Br)cc1Br [Compound 29]
inhibition at 10 µM (CyP A): 89%

O=C(NCc1cccc(CNC(=O)Nc2cc(Cl)cc(Cl)c2)c1)Nc1cc(Cl)cc(Cl)c1 [Compound 30]
inhibition at 10 µM (CyP A): 88%

O=C(NCc1cccc(CNC(=O)Nc2ccc(Br)cc2Br)c1)Nc1ccc(Br)cc1Br [Compound 31]
inhibition at 10 µM (CyP A): 100%

cyclosporin A [CsA, reference compound]
neuroprotective activity (number of viable neurons) (ventral horn motoneurons): maintains neuronal viability
